# Experimental data: patent US20090305993A1, “METHODS AND COMPOSITION FOR THE TREATMENT OF GASTROINTESTINAL DISORDERS” (IRONWOOD PHARMACEUTICALS, INC., priority 2006, published 2009)
# Where two headings read alike, the source gives them in different places. Where a SMILES comes first, the peptide text is derived from it. Bridges are numbered along the chain shown (N, C = ends).
# What was measured:
# Male Wistar rats = experiment: TNBS visceral hypersensitivity rat model (colorectal distension, EMG); format: in vivo; details: 0.3 μg/kg and 3 μg/kg, after TNBS, FIG. 7a
# Description: Male Wistar rats (220-250 g) were premedicated with 0.5 mg/kg of acepromazine injected intraperitoneally (IP) and anesthetized by intramuscular administration of 100 mg/kg of ketamine. Pairs of nichrome wire electrodes (60 cm in length and 80 μm in diameter) were implanted in the striated muscle of the abdomen, 2 cm laterally from the white line. The free ends of electrodes were exteriorized on the back of the neck and protected by a plastic tube attached to the skin. Electromyographic (EMG) recordings were started 5 days after surgery. Electrical activity of abdominal striated muscle was recorded with an electroencephalograph machine (Mini VIII, Alvar, Paris, France) using a short time constant (0.03 sec.) to remove low-frequency signals (<3 Hz).
# Ten days post surgical implantation, trinitrobenzenesulphonic acid (TNBS) was administered to induce rectal inflammation. TNBS (80 mg kg^−1 in 0.3 ml 50% ethanol) was administered intrarectally through a silicone rubber catheter introduced at 3 cm from the anus under light diethyl-ether anesthesia, as described (Morteau et al. 1994 Dig Dis Sci 39:1239). […] Evaluation of rectal sensitivity, as measured by EMG, was performed before (1-2 days) and 3 days following rectal instillation of TNBS.
# The number of spike bursts that corresponds to abdominal contractions was determined per 5 min periods. […]
# mice = experiment: murine gastrointestinal transit (GIT) assay, acute dosing; format: in vivo, mouse
# Description: In order to determine whether the peptides increase the rate of gastrointestinal transit, the peptides and controls were tested using a murine gastrointestinal transit (GIT) assay (Moon et al. Infection and Immunity 25:127, 1979). In this assay, charcoal, which can be readily visualized in the gastrointestinal tract is administered to mice after the administration of a test compound. The distance traveled by the charcoal is measured and expressed as a percentage of the total length of the […].
# Mice were fasted with free access to water for 12 to 16 hours before the treatment with peptide or control buffer. The peptides were orally administered at 1 μg/kg-1 mg/kg of peptide in buffer (20 mM Tris pH 7.5) 7 minutes before being given an oral dose of 5% Activated Carbon (Aldrich 242276-250G). Control mice were administered buffer only before being given a dose of Activated Carbon. After 15 minutes, the mice were sacrificed and their intestines from the stomach to the cecum were dissected. The total length of the intestine as well as the distance traveled from the stomach to the charcoal front was measured for each animal and the results are expressed as the percent of the total length of the intestine traveled by the charcoal front. All results are reported as the average of 10 mice±standard deviation. A comparison of the distance traveled by the charcoal between the mice treated with peptide versus the mice treated with vehicle alone was performed using a Student's t test and a statistically significant difference was considered for P<0.05. P-values are calculated using a two-sided T-Test assuming unequal variances.
# [1] = biological target: T1, GC-C receptors on the cell surface of human colonic cells (T84 cells) (Homo sapiens, UniProt P25092); experiment: competitive radioligand-binding assay on T84 cells
# T1 construct: host or cells: T84 cells (whole cells in suspension)
# T1 sequence (P25092 24-1073): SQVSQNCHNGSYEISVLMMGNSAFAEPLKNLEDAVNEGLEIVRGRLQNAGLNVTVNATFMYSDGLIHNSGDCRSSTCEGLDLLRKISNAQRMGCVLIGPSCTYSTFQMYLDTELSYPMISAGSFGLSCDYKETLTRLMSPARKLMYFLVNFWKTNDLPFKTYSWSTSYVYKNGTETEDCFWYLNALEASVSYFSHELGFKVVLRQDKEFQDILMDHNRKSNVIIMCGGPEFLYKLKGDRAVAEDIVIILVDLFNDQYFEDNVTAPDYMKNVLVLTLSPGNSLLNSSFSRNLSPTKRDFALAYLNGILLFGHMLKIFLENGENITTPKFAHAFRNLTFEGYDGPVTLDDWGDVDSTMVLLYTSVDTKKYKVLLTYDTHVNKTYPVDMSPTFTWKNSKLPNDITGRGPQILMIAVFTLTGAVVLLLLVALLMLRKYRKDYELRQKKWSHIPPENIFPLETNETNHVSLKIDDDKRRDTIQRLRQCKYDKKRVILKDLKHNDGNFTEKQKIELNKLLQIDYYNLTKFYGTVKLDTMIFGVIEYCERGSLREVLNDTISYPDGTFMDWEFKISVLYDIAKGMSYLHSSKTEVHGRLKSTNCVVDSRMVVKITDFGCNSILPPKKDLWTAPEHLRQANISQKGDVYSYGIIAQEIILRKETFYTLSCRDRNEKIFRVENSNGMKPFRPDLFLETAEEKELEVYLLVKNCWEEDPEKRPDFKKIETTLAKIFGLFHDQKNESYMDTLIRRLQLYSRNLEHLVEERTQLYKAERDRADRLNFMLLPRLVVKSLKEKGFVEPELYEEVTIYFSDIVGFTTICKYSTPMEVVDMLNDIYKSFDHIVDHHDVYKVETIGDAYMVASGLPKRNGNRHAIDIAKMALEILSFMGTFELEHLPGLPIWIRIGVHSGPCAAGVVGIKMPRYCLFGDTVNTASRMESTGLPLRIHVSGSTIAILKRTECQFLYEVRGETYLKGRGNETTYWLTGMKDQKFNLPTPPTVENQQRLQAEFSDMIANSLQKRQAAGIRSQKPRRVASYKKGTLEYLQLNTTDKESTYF
# Description: The radiolabeled tracer used in these experiments was ^125I-SEQ ID NO:7. To determine binding constants, competitive inhibition of binding was used. T84 cells were cultured in T-150 plastic flasks in DMEM and Ham's F-12 medium containing 5% fetal bovine serum. Monolayers at 60-70% confluency (approximately 10^7 cells) were collected by gentle scraping followed by centrifugation, and washed twice in 50 mL of phosphate-buffered saline (PBS). The cells were resuspended in 1 mL DMEM containing 20 mM […] (Hepes), pH 7.0 and 0.5% bovine serum albumin (BSA). T84 cells were incubated with a constant amount of ^125I-SEQ ID NO:7 containing various concentrations of cold competitor. Free ^125I-SEQ ID NO:7 was separated from bound tracer by rapid suction filtration. The binding reactions were carried out in 1.5 mL microfuge tubes in 0.24 mL of DMEM/20 mM Hepes pH 7.0/0.5% BSA containing: 2.5×10^5 T84 cells (0.25 mg protein), 200,000 cpm ^125I-SEQ ID NO:7 (41 fmol, […]), and 0.01 to 1,000 nM competitor. Binding assays at pH 5.0 were done in DMEM/20 mM 2-(N-morpholino) ethanesulfonic acid (Mes), pH 5.0. Binding assays in pH 8.0 were done in DMEM/20 mM Hepes/50 mM sodium bicarbonate pH 8.0. One sample contained no competitor (B0) and another contained no cells. After incubation at 37° C. for 1 h, the reaction mixtures were applied to Whatman GF/B glass-fiber filters by suction filtration. The filters were then rinsed with 10 mL ice-cold PBS buffer, inserted into plastic tubes, and added to 2 mL scintillation fluid. Radioactivity was measured in a LS 6500 liquid scintillation counter (Beckman-Coulter). The percent bound in each sample is calculated by the equation:
# % B/B0=(sample cpm−no cells cpm)×100/(B0 cpm−no cells cpm)
# Competitive radioligand-binding curves were generated using the Graphpad PRISM™ computer program. […] The apparent dissociation equilibrium constant (Ki) for each competitor was obtained from the IC50 values and the previously reported estimate of the dissociation constant for the radioligand, Kd≈15 nM (Hamra et al. 1997 PNAS 2705-10) and the method of Cheng and Prusoff 1973 Biochem Pharmacol 22:3099-108. Using a two site model, high and low affinity-binding sites were identified on T84 cells (Ki1 and Ki2) for all the test agents. At pH 7.0. for SEQ ID NO:3 Ki1 ranged from 0.89-1.23 nM and Ki2 ranged from 88.9-156 nM.
compound,measurement,setting,value
"C[C@@H]1NC(=O)[C@@H]2CCCN2C(=O)[C@H](CC(N)=O)NC(=O)[C@@H]2CSSC[C@H](N)C(=O)N[C@H]3CSSC[C@H](NC1=O)C(=O)N[C@@H]([C@@H](C)O)C(=O)NCC(=O)N[C@H](C(=O)N[C@@H](Cc1ccc(O)cc1)C(=O)O)CSSC[C@H](NC(=O)[C@H](Cc1ccc(O)cc1)NC(=O)[C@H](CCC(=O)O)NC3=O)C(=O)N2 [SEQ ID NO:3] (H-CCEYCCNPACTGCY-OH; disulfide 1-6, 2-10, 5-13; N-terminus and C-terminus assumed)",abdominal response to colorectal distension,Male Wistar rats,Significant decreases in abdominal response
same,intestinal transit rates versus Tris buffer and Zelnorm,"mice; chemically synthesized peptides, FIG. 4b",increase intestinal transit rates more than either Tris buffer alone or an equivalent dose of Zelnorm®
same,gastrointestinal transit rate,"mice; oral, SEQ ID NO:4 0.1 mg/kg, Zelnorm 0.1 mg/kg, FIG. 3a, 3b",increase gastrointestinal transit rate
same,"effect of pH on binding to the high affinity site, Ki1","[1]; pH 5, 7 and 8",not affected by pH
same,Ki,"[1]; pH 5.0, T84 cells, read-out: Ki1 (high affinity site)",1.38 nM
same,Ki,"[1]; pH 5.0, T84 cells, read-out: Ki2 (low affinity site)",17 nM
same,Ki,"[1]; pH 8.0, T84 cells, read-out: Ki1 (high affinity site)",0.6 nM
same,Ki,"[1]; pH 8.0, T84 cells, read-out: Ki2 (low affinity site)",94.4 nM
